Laboratory results from ChEMBL document CHEMBL5705903, “A DNA Hypomethylation Signature Predicts Antitumor Activity of LSD1 Inhibitors in SCLC” (Cancer Cell, 2015).
Activity calls are given as the source filed them. The calls are words filed in the database; no cut-off is given here.

What was measured:
NCI-H146 = assay: Effect on NCAM gene expression in human NCI-H146 cells at 1 uM measured after 4 days by qRT-PCR analysis; assay type: functional, cell-based; conditions: time 4.0 day
[1] = Effect on cleaved PARP level in human NCI-H526 cells assessed as relative expression at 10 nM measured after 10 days by Western blot analysis (reference value: 0.81); assay type: functional; conditions: time 10 day
[2] = Effect on cleaved PARP level in human NCI-H510 cells assessed as fold change at 100 nM measured after 10 days by Western blot analysis (reference value: 1.00); assay type: functional, NCI-H510A; conditions: time 10 day
[3] = Effect on cleaved PARP level in human NCI-H1694 cells assessed as fold change at 1000 nM measured after 10 days by Western blot analysis (reference value: 1.00); assay type: functional; conditions: time 10 day
[4] = Effect on cleaved PARP level in human NCI-H1694 cells assessed as relative expression at 1000 nM measured after 10 days by Western blot analysis (reference value: .31); assay type: functional; conditions: time 10 day
[5] = Effect on cleaved PARP level in human COLO-668 cells assessed as relative expression at 1000 nM measured after 7 days by Western blot analysis (reference value: […]); assay type: functional; conditions: time 7 day
[6] = Effect on cleaved PARP level in human COLO-668 cells assessed as relative expression at 10 nM measured after 10 days by Western blot analysis (reference value: 1.07); assay type: functional; conditions: time 10 day
[7] = Effect on cleaved PARP level in human NCI-H526 cells assessed as fold change at 10 nM measured after 7 days by Western blot analysis (reference value: 1.00); assay type: functional; conditions: time 7 day
[8] = Toxicity in dog assessed as suppression of neutrophil in bone marrow measured for 28 days; assay type: cell-based, Canis lupus familiaris; conditions: 672 h, time 28 day
[9] = Effect on cleaved PARP level in human NCI-H526 cells assessed as fold change at 100 nM measured after 10 days by Western blot analysis (reference value: 1.00); assay type: functional; conditions: time 10 day
[10] = Effect on cleaved PARP level in human NCI-H1417 cells assessed as fold change at 100 nM measured after 7 days by Western blot analysis (reference value: 1.00); assay type: functional; conditions: time 7 day
[11] = Effect on cleaved PARP level in human NCI-H1417 cells assessed as relative expression at 10 nM measured after 14 days by Western blot analysis (reference value: 0.38); assay type: functional; conditions: time 14 day
[12] = Effect on cleaved PARP level in human NCI-H69 cells assessed as relative expression at 1000 nM measured after 10 days by Western blot analysis (reference value: 0.03); assay type: functional; conditions: time 10 day
NCI-H510A = assay: Effect on NSE gene expression in human NCI-H510A cells at 1 uM measured after 4 to 7 days by qRT-PCR analysis; assay type: functional, cell-based; conditions: time 4-7 day
NCI-H526 [13] = assay: In vivo inhibition of LSD1 in human NCI-H526 cells xenografted in nude mouse assessed as change in FEZ1 gene expression measured after 24 hrs post single administration by qRT-PCR analysis; assay type: functional, organism-based; conditions: dose 0.06-135 mg/kg
[14] = Effect on cleaved PARP level in human NCI-H1417 cells assessed as fold change at 10 nM measured after 7 days by Western blot analysis (reference value: 1.00); assay type: functional; conditions: time 7 day
NCI-H526 [15] = assay: In vivo inhibition of LSD1 in human NCI-H526 cells xenografted in nude mouse assessed as change in IGFBP2 gene expression administrated daily for 5 days by qRT-PCR analysis; assay type: functional, organism-based; conditions: dose 0.02-135 mg/kg, time 5.0 day
[16] = Effect on cleaved PARP level in human NCI-H510 cells assessed as fold change at 1000 nM measured after 7 days by Western blot analysis (reference value: 1.00); assay type: functional, NCI-H510A; conditions: time 7 day
[17] = Effect on cleaved PARP level in human NCI-H1417 cells assessed as fold change at 1000 nM measured after 7 days by Western blot analysis (reference value: 1.00); assay type: functional; conditions: time 7 day
[18] = Effect on cleaved PARP level in human NCI-H69 cells assessed as relative expression at 1000 nM measured after 7 days by Western blot analysis (reference value: 0.02); assay type: functional; conditions: time 7 day
[19] = Effect on cleaved PARP level in human NCI-H1417 cells assessed as relative expression at 1000 nM measured after 7 days by Western blot analysis (reference value: 0.10); assay type: functional; conditions: time 7 day
[20] = Toxicity in rat assessed as myelofibrosis measured for 28 days; conditions: in vivo, 672 h, time 28 day
[21] = Effect on cleaved PARP level in human COLO-668 cells assessed as relative expression at 100 nM measured after 7 days by Western blot analysis (reference value: […]); assay type: functional; conditions: time 7 day
[22] = Effect on cleaved PARP level in human NCI-H510 cells assessed as relative expression at 100 nM measured after 14 days by Western blot analysis (reference value: 0.01); assay type: functional, NCI-H510A; conditions: time 14 day
[23] = Effect on cleaved PARP level in human COLO-668 cells assessed as fold change at 100 nM measured after 10 days by Western blot analysis (reference value: 1.00); assay type: functional; conditions: time 10 day
[24] = Effect on cleaved PARP level in human NCI-H1694 cells assessed as fold change at 100 nM measured after 14 days by Western blot analysis (reference value: 1.00); assay type: functional; conditions: time 14 day
[25] = Effect on cleaved PARP level in human NCI-H146 cells assessed as fold change at 100 nM measured after 10 days by Western blot analysis (reference value: 1.00); assay type: functional; conditions: time 10 day
[26] = Effect on cleaved PARP level in human NCI-H1417 cells assessed as fold change at 100 nM measured after 14 days by Western blot analysis (reference value: 1.00); assay type: functional; conditions: time 14 day
NCI-H446 = assay: Effect on NSE gene expression in human NCI-H446 cells at 1 uM measured after 4 to 7 days by qRT-PCR analysis; assay type: functional, cell-based; conditions: time 4-7 day
NCI-H526 [27] = assay: In vivo inhibition of LSD1 in human NCI-H526 cells xenografted in nude mouse assessed as change in LIX1L gene expression administrated daily for 5 days by qRT-PCR analysis; assay type: functional, organism-based; conditions: dose 0.02-135 mg/kg, time 5.0 day
SHP77 = assay: Antitumor activity against human SHP77 cells xenografted in nude mouse assessed as tumor growth inhibition at […] mg/kg, po administered daily measured twice weekly relative to control; assay type: functional; conditions: read-out: TGI
[28] = Effect on cleaved PARP level in human NCI-H1694 cells assessed as fold change at 1000 nM measured after 14 days by Western blot analysis (reference value: 1.00); assay type: functional; conditions: time 14 day
[29] = Antitumor activity against human PDX L44 cells xenografted in mouse assessed as tumor growth inhibition at 1.5 mg/kg administered daily measured for 30 days relative to control; assay type: functional; conditions: PDX LX44, 720 h, time 30 day, read-out: TGI
[30] = Effect on cleaved PARP level in human NCI-H146 cells assessed as relative expression at 100 nM measured after 14 days by Western blot analysis (reference value: 2.42); assay type: functional; conditions: time 14 day
[31] = Effect on cleaved PARP level in human NCI-H1694 cells assessed as relative expression at 1000 nM measured after 7 days by Western blot analysis (reference value: 0.25); assay type: functional; conditions: time 7 day
[32] = Inhibition of Cav1.2 (unknown origin); design: species or system Homo sapiens

O=C(O)c1ccc(CN2CCC(CN[C@@H]3C[C@H]3c3ccccc3)CC2)cc1 [GSK2879552]
Activity (NCI-H146): inactive
Activity [1]: 0.46
fold change (FC) [2]: 9.72
fold change (FC) [3]: 0.71
Activity [4]: 0.22
Activity [5]: 1.36
Activity [6]: 0.81
fold change (FC) [7]: 0.85
Activity [8]: Toxic
fold change (FC) [9]: 1.16
fold change (FC) [10]: 2.85
Activity [11]: 0.31
Activity [12]: 0.09
Activity (NCI-H510A): inactive
inhibition (NCI-H526 [13]): Dose-Dependent Effect
fold change (FC) [14]: 1.53
inhibition (NCI-H526 [15]): Dose-Dependent Effect
fold change (FC) [16]: 2.06
fold change (FC) [17]: 3.48
Activity [18]: 0.04
Activity [19]: 0.36
Activity [20]: Toxic
Activity [21]: 1.52
Activity [22]: 0.52
fold change (FC) [23]: 0.69
fold change (FC) [24]: 0.89
fold change (FC) [25]: 0.94
fold change (FC) [26]: 0.83
Activity (NCI-H446): inactive
inhibition (NCI-H526 [27]): Dose-Dependent Effect
inhibition in vivo at 1.25 mg/kg (SHP77): 17%
fold change (FC) [28]: 0.84
inhibition in vivo at 1.5 mg/kg [29]: 69%
Activity [30]: 1.09
Activity [31]: 0.36

c1ccc([C@@H]2C[C@H]2NC2CCNCC2)cc1
IC50 [32]: > 100 µM
